From ChEMBL document CHEMBL5543155, “Design, Synthesis, and Biological Evaluation of β-Trifluoroethoxydimethyl Selenides as Potent Antiosteoporosis Agents” (J Med Chem, 2024)
The source made the active and inactive calls. The rule behind the calls is not given here.

Key:
[1] = system: RAW264.7; test: Cytotoxicity against mouse RAW264.7 cells assessed as cell destruction at 5 uM incubated for 48 hrs by MTT assay; format: toxicity, cell-based; settings: raw264.7, 48 h
[2] = system: RAW264.7; test: Inhibition of RANKL-induced osteoclast differentiation in mouse RAW264.7 cells at 5 uM incubated for 4 days with media replacement for every 2 days by TRAP-staining based light microscopic analysis; format: functional, cell-based; settings: time 4.0 day

SMILES | Activity [1] | inhibition [2]
CC(C)(OCC(F)(F)F)C([Se]c1ccccc1)C(=O)Nc1ccnc(Br)c1 (configuration not stated) | Non-Toxic | 
Cc1cnccc1NC(=O)C([Se]c1ccccc1)C(C)(C)OCC(F)(F)F (configuration not stated) | Non-Toxic | 
CC(C)(OCC(F)(F)F)C([Se]c1ccccc1)C(=O)Nc1ccnc(F)c1 (configuration not stated) | Non-Toxic | 
CC(C)(OCC(F)(F)F)C([Se]c1ccc2c(c1)OCO2)C(=O)Nc1ccccc1 (configuration not stated) | Non-Toxic | Active
COc1ncccc1[Se]C(C(=O)Nc1ccccc1)C(C)(C)OCC(F)(F)F (configuration not stated) | Non-Toxic | Active
Cc1cccc([Se]C(C(=O)Nc2ccccc2)C(C)(C)OCC(F)(F)F)c1 (configuration not stated) | Non-Toxic | Active
CC(C)(OCC(F)(F)F)C([Se]c1ccccc1)C(=O)Nc1ccc(Br)cc1 (configuration not stated) | Non-Toxic | Active
CC(C)(OCC(F)(F)F)C([Se]c1cccc(Br)c1)C(=O)Nc1ccccc1 (configuration not stated) | Non-Toxic | Active
CC(C)(OCC(F)(F)F)C([Se]c1ccccc1)C(=O)NC1CCCCC1 (configuration not stated) | Non-Toxic | Active
CC(C)(OCC(F)(F)F)C([Se]c1ccccc1)C(=O)Nc1cccc(Cl)c1 (configuration not stated) | Non-Toxic | Active
Cc1ccccc1NC(=O)C([Se]c1ccccc1)C(C)(C)OCC(F)(F)F (configuration not stated) | Non-Toxic | Active
CC(C)(OCC(F)(F)F)C([Se]c1ccccc1)C(=O)Nc1ccc(I)cc1 (configuration not stated) | Non-Toxic | Active
COc1cc(NC(=O)C([Se]c2ccccc2)C(C)(C)OCC(F)(F)F)ccn1 (configuration not stated) | Non-Toxic | 
CC(C)(OCC(F)(F)F)C([Se]c1ccc(F)cc1)C(=O)Nc1ccncc1 (configuration not stated) | Non-Toxic | 
CC(C)(OCC(F)(F)F)C([Se]c1ccccc1Br)C(=O)Nc1ccccc1 (configuration not stated) | Non-Toxic | Active
CC(C)(OCC(F)(F)F)C([Se]c1ccccc1)C(=O)Nc1cccc(F)c1 (configuration not stated) | Non-Toxic | Active
CC(C)(OCC(F)(F)F)C([Se]c1ccc(F)cc1)C(=O)Nc1ccccc1 (configuration not stated) | Non-Toxic | Active
COc1ccc([Se]C(C(=O)Nc2ccncc2)C(C)(C)OCC(F)(F)F)cc1 (configuration not stated) | Non-Toxic | 
CCCC[Se]C(C(=O)Nc1ccccc1)C(C)(C)OCC(F)(F)F (configuration not stated) | Non-Toxic | Active

SMILES | Activity [1] | inhibition [2]
Cc1cc(NC(=O)C([Se]c2ccccc2)C(C)(C)OCC(F)(F)F)ccn1 (configuration not stated) | Non-Toxic | 
CC(C)(OCC(F)(F)F)C([Se]c1ccccc1)C(=O)Nc1ccccc1F (configuration not stated) | Non-Toxic | 
CC(C)(OCC(F)(F)F)C([Se]c1ccccc1)C(=O)Nc1cnc2ccccc2c1 (configuration not stated) | Non-Toxic | Active
COc1ccc(NC(=O)C([Se]c2ccccc2)C(C)(C)OCC(F)(F)F)cc1 (configuration not stated) | Non-Toxic | Active
Cc1cc(Cl)ccc1NC(=O)C([Se]c1ccccc1)C(C)(C)OCC(F)(F)F (configuration not stated) | Non-Toxic | Active
CCOC(C)(C)C([Se]c1ccccc1)C(=O)Nc1ccccc1 (configuration not stated) | Non-Toxic | 
CC(C)(OCC(F)(F)F)C([Se]c1ccccc1)C(=O)Nc1ccccc1 (configuration not stated) | Non-Toxic | 
COc1ccc([Se]C(C(=O)Nc2ccccc2)C(C)(C)OCC(F)(F)F)cc1 (configuration not stated) | Non-Toxic | Active
Cc1ccc([Se]C(C(=O)Nc2ccccc2)C(C)(C)OCC(F)(F)F)cc1 (configuration not stated) | Non-Toxic | Active
CC(C)(OCC(F)(F)F)C([Se]c1ccccc1Cl)C(=O)Nc1ccccc1 (configuration not stated) | Non-Toxic | Active
CC(C)(OCC(F)(F)F)C([Se]c1ccc(Br)cc1)C(=O)Nc1ccccc1 (configuration not stated) | Non-Toxic | Active
COc1ccccc1[Se]C(C(=O)Nc1ccccc1)C(C)(C)OCC(F)(F)F (configuration not stated) | Non-Toxic | Active
CC(C)(OCC(F)(F)F)C([Se]c1ccccc1)C(=O)Nc1ccccn1 (configuration not stated) | Non-Toxic | 
CC(C)(OCC(F)(F)F)C([Se]c1cccc(F)c1)C(=O)Nc1ccccc1 (configuration not stated) | Non-Toxic | Active
Cc1ccccc1[Se]C(C(=O)Nc1ccccc1)C(C)(C)OCC(F)(F)F (configuration not stated) | Non-Toxic | 
CC(C)(OCC(F)(F)F)C([Se]c1ccccc1F)C(=O)Nc1ccccc1 (configuration not stated) | Non-Toxic | Active
COc1ccccc1NC(=O)C([Se]c1ccccc1)C(C)(C)OCC(F)(F)F (configuration not stated) | Non-Toxic | Active
CC(C)(OCC(F)(F)F)C([Se]c1ccccc1)C(=O)Nc1cccnc1 (configuration not stated) | Non-Toxic | 
CC(C)(OCC(F)(F)F)C([Se]c1ccccc1)C(=O)Nc1ccnc(Cl)c1 (configuration not stated) | Non-Toxic | 
